According to US20060052435A1, “Selective dopamin d3 receptor agonists for the treatment of sexual dysfunction” (priority 2001, published 2006):

Key:
[1] = target: human dopamine D2 long receptor (Homo sapiens, UniProt P14416)
[2] = emesis in the chloralose anaesthetised dog; conditions: male, beagle, dog, in vivo, 3000 μg kg^−1
Protocol: (§1) Male beagles, 11-17 kg were used. Following an overnight fast, animals were anaesthetised with chloralose (80 mg kg^−1 i.v.), having first been injected with an anaesthetic dose of the short acting barbiturate, thiopentone (15 mg kg^−1 i.v.). Following tracheal intubation, which ensured a patent airway even during the expulsion phase of the emetic response, the left femoral vein and artery were cannulated for further administration of anaesthetic and for recording haemodynamic parameters, respectively. […] During the stabilisation period, respiratory rate was monitored to ensure that central respiratory centres were not deeply depressed, since the CNS efferent component of the emetic reflex is essentially conveyed via respiratory motor neurones. […] Animals were observed closely for 30 min post-dose and motor (e.g. swallowing, eye blinking, limb movements, changes in respiratory rate and depth, retching and vomiting) and haemodynamic changes noted and recorded. […] At the end of an experiment animals were sacrificed with an overdose of pentobarbitone.
(§2) Observations made on individual animals were used to determine the percentage of animals that retched when injected with a particular dose level of test compound. Percentage of animals retching was then used to construct a dose response curve and an ED50 value determined from the appropriate curve.

anaesthetised dog [3] = experiment: emesis in the chloralose anaesthetised dog
Protocol: as §1, §2

conscious rats = experiment: conscious rat models of copulatory behaviour; conditions: in vivo
Protocol: All studies of sexual behaviour must be performed on adult rats (˜12 weeks of age/200 g weight). Sexual behaviour tests are performed under red light during the dark phase of the light/dark cycle starting at 2 h after lights off and videotaped for further analysis (observer presence can unfavourably alter sexual behaviour).
Males (N=8-10) are placed in a clear aquarium (or home cage) for at least 15 min acclimation period. An estrous female is introduced into the mating arena. The following information is recorded during the 45 min test: latency to begin mounting behaviour, latency to first intromission, latency to first ejaculation (calculated from first intromission), number of intromissions to ejaculation, number of mounts until ejaculation, and the number of ejaculations during the test period. Males are observed during a single 45 min test with an estrous WT female.
The rats are presented with a receptive female at […], i.e. every third day (having 2 clear days between presentations), until completing at least 6 days of baseline determination. By then, vigorous behaviour should be expected. Rats that display sluggish copulatory behaviour are used as a model of HSDD.
For all the sexual behaviour tests, the males are placed in an observation arena (50-60 cm diameter for rats). 3 to 4 minutes after placing the male in the arena, a receptive female (ovariectomised, bearing a 7 mm silastic implant of oestradiol benzoate gives the best results without complications) is introduced to the arena and the following parameters noted:
Mount Latency: time (in seconds) taken between introduction of female and first mount. A maximum time of 15 minutes (900 seconds) is allowed, and the test terminated if no mounts are recorded within that time. Mount latency is related to sexual drive/desire.
Intromission Latency: time (in seconds) taken between introduction of female and first intromission. A maximum time of 15 minutes (900 seconds) is allowed, and the test terminated if no intromissions are recorded within that time. Intromission latency is related to sexual drive/desire.
Copulatory effectsiveness:—no of intromissions/(no of mounts+intromissions). This acts as a measure of erectile function.
The test, in the rat, is carried out in a circular arena of 90 cm diameter surrounded by a 30 cm high wall (these dimensions would need to be adapted for mice). Two small cages with wire-mesh front (15×15 cm) are fixed into the wall such that the front of the cage is “flush” with the wall and the 2 cages are opposite each other. […] The difference in the percentage of time spent investigating male minus female is calculated, out of the total time spent investigating stimuli animals. […] Female rats would then be used intact and tested in late proestrous, as determined by vaginal smears. […]

anaesthetised dog [4] = experiment: haemodynamics in the anaesthetised dog; assay type: in vivo; conditions: for effect on mean blood pressure / effect on total vascular resistance (TVR; TPR) / effect on cardiac output and heart rate: s.c., hydrochloride; for effect on mean blood pressure / effect on total vascular resistance (TVR; TPR): doses up to 3000 μg/kg
Text: Male beagles were anaesthetised with a mixture of chloralose and urethane, following pre-medication with piritramide. They were instrumented to measure arterial blood pressure, cardiac output, E.C.G., pudendal artery blood flow (PAF) and intra-cavernosal pressure (ICP). Other parameters such as heart rate and vascular resistance were derived from the primary signals. Following a period of equilibration, a series of control readings were taken and the effects of pelvic nerve stimulation at 4 and 8 Hz, on ICP and PAF were measured. Compounds were administered subcutaneously in the dorsal neck region via an implanted catheter, in the dose range of 0.3-3000 μg(base)/kg. Following each dose, parameters were measured at fixed intervals for 30 min.
Results were analysed as percent change from the final control values for each dog and mean values for three dogs were used.

telemetry rats = experiment: rat telemetry model of erection (intracavernosal pressure); assay type: in vivo
Protocol: Erectile responses were recorded by measuring intracavernosal pressure and/or clitoral/vaginal blood flow using surgically implanted telemetric device. The specific details of the surgical procedures, data acquisition and analysis can be found in detail in Bernabe J, Rampin O, Sachs B D, Giuliano F. Intracavernous pressure during erection in rats: an integrative approach based on telemetric recording. Am. J. Physiol.

[5] = at 3000 μg/kg, haemodynamic study

human dopamine D2 long receptor, sequence (P14416 whole entry): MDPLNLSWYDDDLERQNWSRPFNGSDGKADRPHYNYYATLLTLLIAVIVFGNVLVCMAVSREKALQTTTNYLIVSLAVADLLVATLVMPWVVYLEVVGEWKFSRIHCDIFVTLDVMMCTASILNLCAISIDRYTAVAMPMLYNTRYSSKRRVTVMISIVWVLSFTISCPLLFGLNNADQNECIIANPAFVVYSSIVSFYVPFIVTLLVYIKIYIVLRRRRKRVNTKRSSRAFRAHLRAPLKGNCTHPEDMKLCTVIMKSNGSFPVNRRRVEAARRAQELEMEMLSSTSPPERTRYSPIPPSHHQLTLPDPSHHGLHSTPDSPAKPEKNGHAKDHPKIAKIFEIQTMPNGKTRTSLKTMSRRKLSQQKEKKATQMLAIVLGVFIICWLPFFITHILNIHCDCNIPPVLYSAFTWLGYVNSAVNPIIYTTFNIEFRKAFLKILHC

SMILES: CCCN1CCO[C@H](c2cccc(O)c2)C1.Cl [Example 8, R-(−)-3-(4-Propylmorpholin-2-yl)phenol hydrochloride]
- EC50 [1]: 4.97 µM
- concentration at 15 min [2]: ~1000 nM
- free plasma concentration relative to the D3 EC50 (anaesthetised dog [3]; at 3000 μg/kg, emesis study): approximately 270 fold
- dose at which emesis was observed (anaesthetised dog [3]; s.c., escalating doses 3-3000 μg kg^−1): > 3 mg/kg
- copulatory behaviour and copulatory effectiveness in male rats (conscious rats): beneficially enhances
- mount latency and intromission latency in sluggish males (model of HSDD) (conscious rats): reduces
- proceptive and receptive behaviours in female rats (conscious rats): beneficially enhances
- sexual desire in oestrogen primed ovarectomised animals (model of HSDD) (conscious rats): restores
- free plasma concentration of the corresponding samples (anaesthetised dog [4]; [5]): 2700 nM
- free plasma concentration relative to the D3 EC50 (anaesthetised dog [4]; [5]): approximately 270 fold
- Geometric mean ED30 (fall in TPR) (anaesthetised dog [4]; dog, in vivo): No effect
- effect on mean blood pressure (anaesthetised dog [4]): No significant effect
- effect on total vascular resistance (TVR; TPR) (anaesthetised dog [4]): No significant effect
- effect on mean blood pressure (anaesthetised dog [4]; listed as selective D3 agonist): no significant effects
- effect on total vascular resistance (TVR; TPR) (anaesthetised dog [4]; listed as selective D3 agonist): no significant effects
- effect on cardiac output and heart rate (anaesthetised dog [4]): no significant effect
- effect on cardiac output and heart rate (anaesthetised dog [4]; listed as selective D3 agonist): no significant effects
- erections/10 minutes in the telemetry rat (telemetry rats; 10 μg/kg s.c.): 2.25±0.25 erections/10 minutes
- free plasma concentration at which prosexual effects were observed (telemetry rats; rat telemetry model, FIG. 1): circa 1 nM
